Data: US20230076792A1, “SEQUENTIAL TARGETING IN CROSSLINKING NANO-THERANOSTICS FOR TREATING BRAIN TUMORS” (The Regents of the University of California, priority 2019, published 2023)
Each block holds one molecule with its values, some of them ahead of it.

Key:
[1] = Pharmacokinetic study in jugular vein catheterized rats; type: in vivo; conditions: Cy7.5 10 mg/kg, serum
Protocol: FIGS. 2A and 2B show cumulative release profile for both hydrophilic (Gd-DTPA) (FIG. 2A) and hydrophobic (Cy7.5) payloads (FIG. 2B) from STICK-NPs and NM in the presence of different pH. A mixture of NM and free Gd was used in (FIG. 2A), as Gd could not be loaded into NM. Drug release study was performed initially at pH 7.4 PBS (grey areas) and was then subjected to pH 6.5 after 4 h (pink areas). Samples were collected at different time points and were measured by inductively coupled plasma mass spectrometry (ICP-MS) for Gd-DTPA level and fluorescence spectrometer for the concentration of Cy7.5. (n=3). […] (n=3) FIG. 2E show the intensity-weighted distribution changes of STICK-NPs in the presence of different concentrations of glucose (mmol/L). Of note, normal human serum glucose level ranges from 3.9 to 5.5 mmol/L. FIG. 2F show pharmacokinetic profiles of free Cy7.5, STICK-NP@Cy, and NM@Cy (Cy7.5, 10 mg/kg) in jugular vein catheterized rats (n=3). Serum was collected at different time points, and drug concentrations were measured based on fluorescence signals. The error bars were the standard deviation (SD).

U87-MG cells = assay: Cellular uptake assay in brain tumor cells; type: cell-based, human; conditions: pH 6.5 versus pH 7.4, Cy7.5 0.1 mg/mL
Protocol: To study the cellular uptake of STICK-NP@Cy, the bEnd.3 cells or U87-MG cells were seeded on 8-well chamber slides (10000 cells/well) and treated with STICK-NP@Cy and other controls (0.1 mg/mL Cy7.5) for 1 hour and washed by PBS three times. Cells were then fixed and stained with DAPI. Cell imaging was acquired using a Keyence fluorescence microscope. For quantitative study, bEnd.3 cells or U87-MG cells (10000 cells/well) were seeded in 96 well plate for overnight and then treated the cells with STICK-NP@Cy and other controls (0.1 mg/mL Cy7.5). Cells were harvested at 0 h, 1 h, 2 h, 3 h, and 4 h and washed with PBS. Total cells were lysed with 100 μL DMSO and the fluorescence intensity was measured by fluorescence spectrophotometer (RF-6000, Shimazu, Japan). To inhibit GLUT1 activity, bEnd.3 cells were pretreated with 40 μM of WZB-117 for 24 h before incubation with STICK-NP@Cy. For the tumor uptake study, U87-MG cells were pretreated with 40 μM of AZT for 24 h to alter the expression of surface sialic acid. To block the interaction, U87-MG cells were pre-incubated with excess free CBA (80 μM) for 24 h to compete for the binding sites with STICK-NP@Cy (pH 6.5) through the CBA targeting moiety in the secondary smaller micelles.

[2] = In vitro drug release profile (dialysis, pH 7.4 then pH 6.5); type: physicochemical; conditions: pH 7.4 PBS
Protocol: Drug release profile. STICK-NP@Cy@Gd was prepared to evaluate the in vitro release profile using dialysis cassettes (Pierce Chemical Inc.) with a 3 kDa MWCO. To make an ideal sink condition, 10 g charcoal was added in the release medium. The cassettes were dialyzed against PBS (pH7.4) at room temperature. The PBS at pH 7.4 was replaced with fresh PBS at pH 6.5 at 4 h. The concentration of CY7.5 and Gd-DTPA remaining in the dialysis cassette at various time points was measured by UV-vis spectroscopy and ICP-MS.

DIPG (PDX) cells = assay: Anti-cancer efficacy in orthotopic PDX DIPG mouse model; type: in vivo, SCID mouse
Protocol: Anti-cancer efficacy study in orthotopic brain tumor models. […] After confirming the establishment of brain tumors, mice were randomly assigned into different groups. Tumor size was monitored using advanced T1-weight imaging (TR/TE=300 ms/15 ms). For imaging study, mice were injected with 250 mg/kg Gd-DTPA. Tumor size of DIPG model was calculated from the aggregation of tumor area in different MRI slices, 1 mm thick. Tumor size of GBM model was calculated as the followed equation: […]
where W is the width of the tumor and the L is the length of the tumor (W<L). One mouse per group was sacrificed on day 12 after MRI imaging, and organs and brain with tumors were harvested for histopathology evaluation. Animals were continuously monitored their appearance, behavior, and body weight. Once the body weight loss>20%, animals were considered as reaching the humane endpoint.

AUC(0-∞) [1]: 51.4 ± 13.4 µg·h/mL
Cmax [1]: 4.19 ± 0.4 µg/mL
Vz [1]: 2.46 ± 0.51 L/kg
t1/2z [1]: 16.92 ± 0.78 h
Molecule: cyanine 7.5 [Free Cy]
U87-MG cell uptake after pretreatment with pH 6.5 (U87-MG cells): no significant enhancement

Release of Gd-DTPA [2]: released immediately
Molecule: CNC[C@H](O)[C@@H](O)[C@H](O)[C@H](O)CO.CNC[C@H](O)[C@@H](O)[C@H](O)[C@H](O)CO.O=C([O-])CN(CCN(CC(=O)[O-])CC(=O)O)CCN(CC(=O)[O-])CC(=O)O.[Gd+3] [free Gd-DTPA, gadopentetic acid]

Molecule: CC[C@]1(O)C[C@H]2CN(CCc3c([nH]c4ccccc34)[C@@](C(=O)OC)(c3cc4c(cc3OC)N(C=O)[C@H]3[C@@](O)(C(=O)OC)[C@H](OC(C)=O)[C@]5(CC)C=CCN6CC[C@]43[C@@H]65)C2)C1 [free VCR, vincristine]
Effect on tumor growth (DIPG (PDX) cells; MRI, compared to PBS control): minimal inhibition effects
Extension of survival compared to PBS control (DIPG (PDX) cells; mouse, in vivo): failed to extend the survival
Survival of mice beyond day 12 (DIPG (PDX) cells; mouse, in vivo): died after day 12
